Results taken from ChEMBL document CHEMBL1909294, “Translating clinical findings into knowledge in drug safety evaluation--drug induced liver injury prediction system (DILIps)” (PLoS Comput Biol, 2011).

Tests used:
Hepatotoxicity [1] = test system: Hepatotoxicity;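 on HepSE bilirubinemia: bilirubinemia hepatic side effect score drawn from the DILIps training data, a prediction system for drug-induced liver injury; call rule not given here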;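 on HepSE cholecystitis: Cholecystitis-related hepatic side effect score drawn from the DILIps (drug-induced liver injury prediction) training data set; call rule not given here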;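 on HepSE cholelithiasis: hepatic side effect score for cholelithiasis, drawn from the DILIps training data for predicting drug-induced liver injury; call rule not given here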;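 on HepSE cirrhosis: cirrhosis hepatic side effect score taken from the DILIps (drug-induced liver injury prediction) training set; call rule not given here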;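 on HepSE elevated liver function tests: hepatic side effect score for raised liver function tests, as recorded in the DILIps training set used for predicting drug-induced liver injury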; on HepSE hepatic failure: call rule not given here;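 on HepSE hepatomegaly: hepatic side effect score for hepatomegaly, taken from the training set of the DILIps drug-induced liver injury prediction system; call rule not given here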
Hepatotoxicity [2] = test system: Hepatotoxicity; remark: listed apart in the source;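 on HepSE bilirubinemia: bilirubinemia hepatic side effect score drawn from the DILIps training data, a prediction system for drug-induced liver injury; call rule not given here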;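 on HepSE cholecystitis: Cholecystitis-related hepatic side effect score drawn from the DILIps (drug-induced liver injury prediction) training data set; call rule not given here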;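 on HepSE cholelithiasis: hepatic side effect score for cholelithiasis, drawn from the DILIps training data for predicting drug-induced liver injury; call rule not given here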;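 on HepSE cirrhosis: cirrhosis hepatic side effect score taken from the DILIps (drug-induced liver injury prediction) training set; call rule not given here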;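 on HepSE elevated liver function tests: hepatic side effect score for raised liver function tests, as recorded in the DILIps training set used for predicting drug-induced liver injury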; on HepSE hepatic failure: call rule not given here;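 on HepSE hepatomegaly: hepatic side effect score for hepatomegaly, taken from the training set of the DILIps drug-induced liver injury prediction system; call rule not given here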
Hepatotoxicity [3] = test system: Hepatotoxicity; remark: listed apart in the source;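 on HepSE bilirubinemia: bilirubinemia hepatic side effect score drawn from the DILIps training data, a prediction system for drug-induced liver injury; call rule not given here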;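 on HepSE cholecystitis: Cholecystitis-related hepatic side effect score drawn from the DILIps (drug-induced liver injury prediction) training data set; call rule not given here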;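 on HepSE cholelithiasis: hepatic side effect score for cholelithiasis, drawn from the DILIps training data for predicting drug-induced liver injury; call rule not given here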;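 on HepSE cirrhosis: cirrhosis hepatic side effect score taken from the DILIps (drug-induced liver injury prediction) training set; call rule not given here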;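 on HepSE elevated liver function tests: hepatic side effect score for raised liver function tests, as recorded in the DILIps training set used for predicting drug-induced liver injury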; on HepSE hepatic failure: call rule not given here
Hepatotoxicity [4] = test system: Hepatotoxicity; remark: listed apart in the source;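 on HepSE bilirubinemia: bilirubinemia hepatic side effect score drawn from the DILIps training data, a prediction system for drug-induced liver injury; call rule not given here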;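 on HepSE cholecystitis: Cholecystitis-related hepatic side effect score drawn from the DILIps (drug-induced liver injury prediction) training data set; call rule not given here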;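 on HepSE cholelithiasis: hepatic side effect score for cholelithiasis, drawn from the DILIps training data for predicting drug-induced liver injury; call rule not given here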;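 on HepSE cirrhosis: cirrhosis hepatic side effect score taken from the DILIps (drug-induced liver injury prediction) training set; call rule not given here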;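 on HepSE elevated liver function tests: hepatic side effect score for raised liver function tests, as recorded in the DILIps training set used for predicting drug-induced liver injury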; on HepSE hepatic failure: call rule not given here
Hepatotoxicity [5] = test system: Hepatotoxicity; remark: listed apart in the source; on HepSE hepatic failure: call rule not given here
Hepatotoxicity [6] = test system: Hepatotoxicity; remark: listed apart in the source; on HepSE hepatic failure: call rule not given here
Hepatotoxicity [7] = test system: Hepatotoxicity; remark: listed apart in the source
Hepatotoxicity [8] = test system: Hepatotoxicity; remark: listed apart in the source
Hepatotoxicity [9] = test system: Hepatotoxicity; remark: listed apart in the source
Hepatotoxicity [10] = test system: Hepatotoxicity; remark: listed apart in the source
Hepatotoxicity [11] = test system: Hepatotoxicity; remark: listed apart in the source
Hepatotoxicity [12] = test system: Hepatotoxicity; remark: listed apart in the source
Hepatotoxicity [13] = test system: Hepatotoxicity; remark: listed apart in the source
Hepatotoxicity [14] = test system: Hepatotoxicity; remark: listed apart in the source

GADOFOSVESET TRISODIUM
HepSE_bilirubinemia (Hepatotoxicity [1]): 0
HepSE_cholecystitis (Hepatotoxicity [2]): 0
HepSE_cholelithiasis (Hepatotoxicity [3]): 0
HepSE_cirrhosis (Hepatotoxicity [4]): 0
HepSE_elevated liver function tests (Hepatotoxicity [5]): 0
HepSE_hepatic failure (Hepatotoxicity [6]): 0
HepSE_hepatic necrosis (Hepatotoxicity [7]): 0
HepSE_hepatitis (Hepatotoxicity [8]): 0
HepSE_hepatomegaly (Hepatotoxicity [9]): 0
HepSE_jaundice (Hepatotoxicity [10]): 0
HepSE_liver disease (Hepatotoxicity [11]): 0
HepSE_liver fatty (Hepatotoxicity [12]): 0
HepSE_liver function tests abnormal (Hepatotoxicity [13]): 0
HepSE_Combined Scores (Hepatotoxicity [14]): 0

GADOTERIDOL
HepSE_bilirubinemia (Hepatotoxicity [1]): 0
HepSE_cholecystitis (Hepatotoxicity [2]): 0
HepSE_cholelithiasis (Hepatotoxicity [3]): 0
HepSE_cirrhosis (Hepatotoxicity [4]): 0
HepSE_elevated liver function tests (Hepatotoxicity [5]): 0
HepSE_hepatic failure (Hepatotoxicity [6]): 0
HepSE_hepatic necrosis (Hepatotoxicity [7]): 0
HepSE_hepatitis (Hepatotoxicity [8]): 0
HepSE_hepatomegaly (Hepatotoxicity [9]): 0
HepSE_jaundice (Hepatotoxicity [10]): 0
HepSE_liver disease (Hepatotoxicity [11]): 0
HepSE_liver fatty (Hepatotoxicity [12]): 0
HepSE_liver function tests abnormal (Hepatotoxicity [13]): 0
HepSE_Combined Scores (Hepatotoxicity [14]): 0

GENTAMICIN
HepSE_bilirubinemia (Hepatotoxicity [1]): 0
HepSE_cholecystitis (Hepatotoxicity [2]): 0
HepSE_cholelithiasis (Hepatotoxicity [3]): 0
HepSE_cirrhosis (Hepatotoxicity [4]): 0
HepSE_elevated liver function tests (Hepatotoxicity [5]): 0
HepSE_hepatic failure (Hepatotoxicity [6]): 0
HepSE_hepatic necrosis (Hepatotoxicity [7]): 0
HepSE_hepatitis (Hepatotoxicity [8]): 0
HepSE_hepatomegaly (Hepatotoxicity [9]): 1
HepSE_jaundice (Hepatotoxicity [10]): 0
HepSE_liver disease (Hepatotoxicity [11]): 0
HepSE_liver fatty (Hepatotoxicity [12]): 0
HepSE_liver function tests abnormal (Hepatotoxicity [13]): 0
HepSE_Combined Scores (Hepatotoxicity [14]): 1

GLATIRAMER ACETATE
HepSE_bilirubinemia (Hepatotoxicity [1]): 0
HepSE_cholecystitis (Hepatotoxicity [2]): 1
HepSE_cholelithiasis (Hepatotoxicity [3]): 1
HepSE_cirrhosis (Hepatotoxicity [4]): 1
HepSE_elevated liver function tests (Hepatotoxicity [5]): 0
HepSE_hepatic failure (Hepatotoxicity [6]): 0
HepSE_hepatic necrosis (Hepatotoxicity [7]): 0
HepSE_hepatitis (Hepatotoxicity [8]): 1
HepSE_hepatomegaly (Hepatotoxicity [9]): 1
HepSE_jaundice (Hepatotoxicity [10]): 0
HepSE_liver disease (Hepatotoxicity [11]): 0
HepSE_liver fatty (Hepatotoxicity [12]): 0
HepSE_liver function tests abnormal (Hepatotoxicity [13]): 0
HepSE_Combined Scores (Hepatotoxicity [14]): 5

GOLD SODIUM THIOMALATE
HepSE_bilirubinemia (Hepatotoxicity [1]): 0
HepSE_cholecystitis (Hepatotoxicity [2]): 0
HepSE_cholelithiasis (Hepatotoxicity [3]): 0
HepSE_cirrhosis (Hepatotoxicity [4]): 0
HepSE_elevated liver function tests (Hepatotoxicity [5]): 0
HepSE_hepatic failure (Hepatotoxicity [6]): 1
HepSE_hepatic necrosis (Hepatotoxicity [7]): 0
HepSE_hepatitis (Hepatotoxicity [8]): 0
HepSE_hepatomegaly (Hepatotoxicity [9]): 0
HepSE_jaundice (Hepatotoxicity [10]): 1
HepSE_liver disease (Hepatotoxicity [11]): 0
HepSE_liver fatty (Hepatotoxicity [12]): 0
HepSE_liver function tests abnormal (Hepatotoxicity [13]): 0
HepSE_Combined Scores (Hepatotoxicity [14]): 2

HEPARIN
HepSE_bilirubinemia (Hepatotoxicity [1]): 0
HepSE_cholecystitis (Hepatotoxicity [2]): 0
HepSE_cholelithiasis (Hepatotoxicity [3]): 0
HepSE_cirrhosis (Hepatotoxicity [4]): 0
HepSE_elevated liver function tests (Hepatotoxicity [5]): 0
HepSE_hepatic failure (Hepatotoxicity [6]): 0
HepSE_hepatic necrosis (Hepatotoxicity [7]): 0
HepSE_hepatitis (Hepatotoxicity [8]): 0
HepSE_hepatomegaly (Hepatotoxicity [9]): 0
HepSE_jaundice (Hepatotoxicity [10]): 0
HepSE_liver disease (Hepatotoxicity [11]): 1
HepSE_liver fatty (Hepatotoxicity [12]): 0
HepSE_liver function tests abnormal (Hepatotoxicity [13]): 0
HepSE_Combined Scores (Hepatotoxicity [14]): 1

HYDROXOCOBALAMIN
HepSE_bilirubinemia (Hepatotoxicity [1]): 0
HepSE_cholecystitis (Hepatotoxicity [2]): 0
HepSE_cholelithiasis (Hepatotoxicity [3]): 0
HepSE_cirrhosis (Hepatotoxicity [4]): 0
HepSE_elevated liver function tests (Hepatotoxicity [5]): 0
HepSE_hepatic failure (Hepatotoxicity [6]): 0
HepSE_hepatic necrosis (Hepatotoxicity [7]): 0
HepSE_hepatitis (Hepatotoxicity [8]): 0
HepSE_hepatomegaly (Hepatotoxicity [9]): 0
HepSE_jaundice (Hepatotoxicity [10]): 0
HepSE_liver disease (Hepatotoxicity [11]): 0
HepSE_liver fatty (Hepatotoxicity [12]): 0
HepSE_liver function tests abnormal (Hepatotoxicity [13]): 0
HepSE_Combined Scores (Hepatotoxicity [14]): 0

IVERMECTIN
HepSE_bilirubinemia (Hepatotoxicity [1]): 0
HepSE_cholecystitis (Hepatotoxicity [2]): 0
HepSE_cholelithiasis (Hepatotoxicity [3]): 0
HepSE_cirrhosis (Hepatotoxicity [4]): 0
HepSE_elevated liver function tests (Hepatotoxicity [5]): 0
HepSE_hepatic failure (Hepatotoxicity [6]): 0
HepSE_hepatic necrosis (Hepatotoxicity [7]): 0
HepSE_hepatitis (Hepatotoxicity [8]): 0
HepSE_hepatomegaly (Hepatotoxicity [9]): 0
HepSE_jaundice (Hepatotoxicity [10]): 0
HepSE_liver disease (Hepatotoxicity [11]): 0
HepSE_liver fatty (Hepatotoxicity [12]): 0
HepSE_liver function tests abnormal (Hepatotoxicity [13]): 0
HepSE_Combined Scores (Hepatotoxicity [14]): 0

MANGAFODIPIR
HepSE_bilirubinemia (Hepatotoxicity [1]): 0
HepSE_cholecystitis (Hepatotoxicity [2]): 0
HepSE_cholelithiasis (Hepatotoxicity [3]): 0
HepSE_cirrhosis (Hepatotoxicity [4]): 0
HepSE_elevated liver function tests (Hepatotoxicity [5]): 0
HepSE_hepatic failure (Hepatotoxicity [6]): 0
HepSE_hepatic necrosis (Hepatotoxicity [7]): 0
HepSE_hepatitis (Hepatotoxicity [8]): 0
HepSE_hepatomegaly (Hepatotoxicity [9]): 0
HepSE_jaundice (Hepatotoxicity [10]): 0
HepSE_liver disease (Hepatotoxicity [11]): 0
HepSE_liver fatty (Hepatotoxicity [12]): 0
HepSE_liver function tests abnormal (Hepatotoxicity [13]): 0
HepSE_Combined Scores (Hepatotoxicity [14]): 0

NITROPRUSSIDE
HepSE_bilirubinemia (Hepatotoxicity [1]): 0
HepSE_cholecystitis (Hepatotoxicity [2]): 0
HepSE_cholelithiasis (Hepatotoxicity [3]): 0
HepSE_cirrhosis (Hepatotoxicity [4]): 0
HepSE_elevated liver function tests (Hepatotoxicity [5]): 0
HepSE_hepatic failure (Hepatotoxicity [6]): 0
HepSE_hepatic necrosis (Hepatotoxicity [7]): 0
HepSE_hepatitis (Hepatotoxicity [8]): 0
HepSE_hepatomegaly (Hepatotoxicity [9]): 0
HepSE_jaundice (Hepatotoxicity [10]): 0
HepSE_liver disease (Hepatotoxicity [11]): 0
HepSE_liver fatty (Hepatotoxicity [12]): 0
HepSE_liver function tests abnormal (Hepatotoxicity [13]): 0
HepSE_Combined Scores (Hepatotoxicity [14]): 0

NYSTATIN
HepSE_bilirubinemia (Hepatotoxicity [1]): 0
HepSE_cholecystitis (Hepatotoxicity [2]): 0
HepSE_cholelithiasis (Hepatotoxicity [3]): 0
HepSE_cirrhosis (Hepatotoxicity [4]): 0
HepSE_elevated liver function tests (Hepatotoxicity [5]): 0
HepSE_hepatic failure (Hepatotoxicity [6]): 0
HepSE_hepatic necrosis (Hepatotoxicity [7]): 0
HepSE_hepatitis (Hepatotoxicity [8]): 0
HepSE_hepatomegaly (Hepatotoxicity [9]): 0
HepSE_jaundice (Hepatotoxicity [10]): 0
HepSE_liver disease (Hepatotoxicity [11]): 0
HepSE_liver fatty (Hepatotoxicity [12]): 0
HepSE_liver function tests abnormal (Hepatotoxicity [13]): 0
HepSE_Combined Scores (Hepatotoxicity [14]): 0

OXALIPLATIN
HepSE_bilirubinemia (Hepatotoxicity [1]): 1
HepSE_cholecystitis (Hepatotoxicity [2]): 0
HepSE_cholelithiasis (Hepatotoxicity [3]): 0
HepSE_cirrhosis (Hepatotoxicity [4]): 0
HepSE_elevated liver function tests (Hepatotoxicity [5]): 0
HepSE_hepatic failure (Hepatotoxicity [6]): 0
HepSE_hepatic necrosis (Hepatotoxicity [7]): 0
HepSE_hepatitis (Hepatotoxicity [8]): 0
HepSE_hepatomegaly (Hepatotoxicity [9]): 0
HepSE_jaundice (Hepatotoxicity [10]): 0
HepSE_liver disease (Hepatotoxicity [11]): 1
HepSE_liver fatty (Hepatotoxicity [12]): 0
HepSE_liver function tests abnormal (Hepatotoxicity [13]): 0
HepSE_Combined Scores (Hepatotoxicity [14]): 2

PORFIMER SODIUM
HepSE_bilirubinemia (Hepatotoxicity [1]): 0
HepSE_cholecystitis (Hepatotoxicity [2]): 0
HepSE_cholelithiasis (Hepatotoxicity [3]): 0
HepSE_cirrhosis (Hepatotoxicity [4]): 0
HepSE_elevated liver function tests (Hepatotoxicity [5]): 0
HepSE_hepatic failure (Hepatotoxicity [6]): 0
HepSE_hepatic necrosis (Hepatotoxicity [7]): 0
HepSE_hepatitis (Hepatotoxicity [8]): 0
HepSE_hepatomegaly (Hepatotoxicity [9]): 0
HepSE_jaundice (Hepatotoxicity [10]): 1
HepSE_liver disease (Hepatotoxicity [11]): 0
HepSE_liver fatty (Hepatotoxicity [12]): 0
HepSE_liver function tests abnormal (Hepatotoxicity [13]): 0
HepSE_Combined Scores (Hepatotoxicity [14]): 1

SEVELAMER
HepSE_bilirubinemia (Hepatotoxicity [1]): 0
HepSE_cholecystitis (Hepatotoxicity [2]): 0
HepSE_cholelithiasis (Hepatotoxicity [3]): 0
HepSE_cirrhosis (Hepatotoxicity [4]): 0
HepSE_elevated liver function tests (Hepatotoxicity [5]): 0
HepSE_hepatic failure (Hepatotoxicity [6]): 0
HepSE_hepatic necrosis (Hepatotoxicity [7]): 0
HepSE_hepatitis (Hepatotoxicity [8]): 0
HepSE_hepatomegaly (Hepatotoxicity [9]): 0
HepSE_jaundice (Hepatotoxicity [10]): 0
HepSE_liver disease (Hepatotoxicity [11]): 0
HepSE_liver fatty (Hepatotoxicity [12]): 0
HepSE_liver function tests abnormal (Hepatotoxicity [13]): 0
HepSE_Combined Scores (Hepatotoxicity [14]): 0

UROFOLLITROPIN
HepSE_bilirubinemia (Hepatotoxicity [1]): 0
HepSE_cholecystitis (Hepatotoxicity [2]): 0
HepSE_cholelithiasis (Hepatotoxicity [3]): 0
HepSE_cirrhosis (Hepatotoxicity [4]): 0
HepSE_elevated liver function tests (Hepatotoxicity [5]): 0
HepSE_hepatic failure (Hepatotoxicity [6]): 0
HepSE_hepatic necrosis (Hepatotoxicity [7]): 0
HepSE_hepatitis (Hepatotoxicity [8]): 0
HepSE_hepatomegaly (Hepatotoxicity [9]): 0
HepSE_jaundice (Hepatotoxicity [10]): 0
HepSE_liver disease (Hepatotoxicity [11]): 0
HepSE_liver fatty (Hepatotoxicity [12]): 0
HepSE_liver function tests abnormal (Hepatotoxicity [13]): 0
HepSE_Combined Scores (Hepatotoxicity [14]): 0
